Data taken from patent publication US20090064375A1, “Paraquat Resistance Gene and a Vascular Tissue- and Trichome-specific Promoter” (priority 2003, published 2009).

System: non-transformant (wild-type Arabidopsis thaliana ecotype Col-0)
Assay: Evaluation of paraquat resistance: growth of germinated individuals in paraquat-containing ½ MS medium, non-transformant
Format: in vivo
Conditions: 3 μM of paraquat in ½ MS agar medium, cultured for eight days at 22° C., FIG. 2C
Procedure: Seeds derived from the produced AtMVR gene transformant and non-transformant (wild-type Arabidopsis thaliana ecotype Col-0) were sterilely inoculated in ½ MS agar (1%) medium (2.3 g/l of Murashige and Skoog Plant Salt Mixture (Wako Pure Chemical Industries Ltd.), 1.5 mg/l of thiamine hydrochloride, 2.5 mg/l of nicotinic acid, 0.25 mg/l of pyridoxine hydrochloride, 1.5% of sucrose) containing 3 μM of paraquat (methyl viologen (Sigma Chemical Co.)), and cultured for eight days at 22° C. under irradiation of light of 60 μmol/m^2/s (cycle of 16 hrs photoperiod/8 hrs dark period). After culture, the growth of germinated individuals was evaluated. The results are shown in FIG. 2, wherein FIG. 2B is a photograph showing growth of an AtMVR gene transformant and a non-transformant in a ½ MS culture medium without paraquat, and FIG. 2C is a photograph showing growth of an AtMVR gene transformant and a non-transformant in a ½ MS culture medium with paraquat. FIG. 2A is a schematic diagram showing the location of the AtMVR gene transformant and the non-transformant in FIGS. 2B and 2C.

Structure (SMILES): C[n+]1ccc(-c2cc[n+](C)cc2)cc1 [paraquat]
- growth of germinated individuals in a medium containing paraquat: developed chlorosis and died
